Measured values reported in ChEMBL document CHEMBL4130619, “Structure-Based Virtual Screening for the Discovery of Novel Inhibitors of New Delhi Metallo-β-lactamase-1” (ACS Med Chem Lett, 2018).
pKi: −log10 of the molar value. In brackets after ≈: the same amount, converted by molar mass. Each block holds one compound with its values, some of them ahead of it.

Legend:
[1] = Competitive inhibition of bacterial NDM1 expressed in Escherichia coli JM109 (DE3) pre-incubated for 10 mins before nitrocefin substrate addition by spectrophotometry; set-up: species or system Bacteria
Bacteria [2] = assay: Competitive inhibition of bacterial NDM1 expressed in Escherichia coli JM109 (DE3) at 200 uM pre-incubated for 10 mins before nitrocefin substrate addition by spectrophotometry
Escherichia coli [3] = assay: Antibacterial activity in Escherichia coli clinical isolates endogenously expressing NDM1 incubated at 37 degC for 18 hrs by spectrophotometry; format: functional
Escherichia coli [4] = assay: Antibacterial activity in Escherichia coli BL21 (DE3) expressing pET-24a-blaNDM-1 incubated at 37 degC for 18 hrs by spectrophotometry; format: functional
[5] = target: Beta-lactamase NDM-1 (Escherichia coli) (UniProt E5KIY2); assay: Inhibition of NDM1 in Escherichia coli clinical isolates assessed as potentiation of meropenem-induced antibacterial activity by measuring reduction in meropenem MIC incubated at 37 degC for 18 hrs by spectrophotometry based checkerboard microdilution assay
Bacteria [6] = assay: (§1) Inhibition of bacterial NDM1 expressed in Escherichia coli BL21 (DE3) expressing pET-24a-blaNDM-1 assessed as potentiation of meropenem-induced antibacterial activity by measuring reduction in meropenem MIC incubated at 37 degC for 18 hrs by spectrophotometry based checkerboard microdilution assay
Bacteria [7] = assay: Inhibition of bacterial NDM1 expressed in Escherichia coli BL21 (DE3) expressing pET-24a-blaNDM-1 assessed as potentiation of cefotaxime-induced antibacterial activity by measuring reduction in cefotaxime MIC incubated at 37 degC for 18 hrs by spectrophotometry based checkerboard microdilution assay
Bacteria [8] = assay: as §1, with “ampicillin-induced” for “meropenem-induced”, “combination” for “reduction in meropenem”, “MIC at >256 ug/ml” for “MIC”
Bacteria [9] = assay: as §1, with “ampicillin-induced” for “meropenem-induced”, “combination” for “reduction in meropenem”, “MIC at 256 ug/ml” for “MIC”
Bacteria [10] = assay: (§2) Inhibition of bacterial NDM1 expressed in Escherichia coli BL21 (DE3) expressing pET-24a-blaNDM-1 assessed as potentiation of meropenem-induced antibacterial activity by measuring combination MIC at 16 ug/ml incubated at 37 degC for 18 hrs by spectrophotometry based checkerboard microdilution assay
Bacteria [11] = assay: as §2, with “0.25” for “16”
Bacteria [12] = assay: as §2, with “cefazolin-induced” for “meropenem-induced”, “>256” for “16”
Bacteria [13] = assay: (§3) Inhibition of bacterial NDM1 expressed in Escherichia coli BL21 (DE3) expressing pET-24a-blaNDM-1 assessed as potentiation of cefazolin-induced antibacterial activity by measuring combination MIC at 256 ug/ml incubated at 37 degC for 18 hrs by spectrophotometry based checkerboard microdilution assay
Bacteria [14] = assay: (§4) Inhibition of bacterial NDM1 expressed in Escherichia coli BL21 (DE3) expressing pET-24a-blaNDM-1 assessed as potentiation of cefotaxime-induced antibacterial activity by measuring combination MIC at 4 ug/ml incubated at 37 degC for 18 hrs by spectrophotometry based checkerboard microdilution assay
Bacteria [15] = assay: as §4, with “at 0.25” for “at 4”
[16] = target: Beta-lactamase NDM-1 (Escherichia coli) (UniProt E5KIY2); assay: Inhibition of NDM1 in Escherichia coli clinical isolates assessed as potentiation of meropenem -induced antibacterial activity by measuring combination MIC at 32 ug/ml incubated at 37 degC for 18 hrs by spectrophotometry based checkerboard microdilution assay
Bacteria [17] = assay: as §2, with “ampicillin-induced” for “meropenem-induced”, “fractional inhibitory concentration index” for “combination MIC”, “>256” for “16”
Bacteria [18] = assay: as §3, with “ampicillin-induced” for “cefazolin-induced”, “fractional inhibitory concentration index” for “combination MIC”
Bacteria [19] = assay: as §2, with “fractional inhibitory concentration index” for “combination MIC”
Bacteria [20] = assay: as §2, with “fractional inhibitory concentration index” for “combination MIC”, “0.25” for “16”
Bacteria [21] = assay: as §3, with “fractional inhibitory concentration index” for “combination MIC”, “>256” for “256”
Bacteria [22] = assay: as §3, with “fractional inhibitory concentration index” for “combination MIC”
Bacteria [23] = assay: as §4, with “fractional inhibitory concentration index” for “combination MIC”
Bacteria [24] = assay: as §4, with “measuring fractional inhibitory concentration index” for “measuring combination MIC”, “at 0.25” for “at 4”
[25] = target: Beta-lactamase NDM-1 (Escherichia coli) (UniProt E5KIY2); assay: Inhibition of NDM1 in Escherichia coli clinical isolates assessed as potentiation of ampicillin-induced antibacterial activity by measuring combination MIC at 128 ug/ml incubated at 37 degC for 18 hrs by spectrophotometry based checkerboard microdilution assay
[26] = target: Beta-lactamase NDM-1 (Escherichia coli) (UniProt E5KIY2); assay: Inhibition of NDM1 in Escherichia coli clinical isolates assessed as potentiation of meropenem -induced antibacterial activity by measuring combination MIC at 2 ug/ml incubated at 37 degC for 18 hrs by spectrophotometry based checkerboard microdilution assay
[27] = target: Beta-lactamase NDM-1 (Escherichia coli) (UniProt E5KIY2); assay: Inhibition of NDM1 in Escherichia coli clinical isolates assessed as potentiation of cefazolin-induced antibacterial activity by measuring combination MIC at >256 ug/ml incubated at 37 degC for 18 hrs by spectrophotometry based checkerboard microdilution assay
[28] = target: Beta-lactamase NDM-1 (Escherichia coli) (UniProt E5KIY2); assay: Inhibition of NDM1 in Escherichia coli clinical isolates assessed as potentiation of cefotaxime-induced antibacterial activity by measuring combination MIC at >256 ug/ml incubated at 37 degC for 18 hrs by spectrophotometry based checkerboard microdilution assay
[29] = target: Beta-lactamase NDM-1 (Escherichia coli) (UniProt E5KIY2); assay: Inhibition of NDM1 in Escherichia coli clinical isolates assessed as potentiation of ampicillin-induced antibacterial activity by measuring fractional inhibitory concentration index at 128 ug/ml incubated at 37 degC for 18 hrs by spectrophotometry based checkerboard microdilution assay
[30] = target: Beta-lactamase NDM-1 (Escherichia coli) (UniProt E5KIY2); assay: Inhibition of NDM1 in Escherichia coli clinical isolates assessed as potentiation of meropenem -induced antibacterial activity by measuring fractional inhibitory concentration index at 32 ug/ml incubated at 37 degC for 18 hrs by spectrophotometry based checkerboard microdilution assay
[31] = target: Beta-lactamase NDM-1 (Escherichia coli) (UniProt E5KIY2); assay: Inhibition of NDM1 in Escherichia coli clinical isolates assessed as potentiation of meropenem -induced antibacterial activity by measuring fractional inhibitory concentration index at 2 ug/ml incubated at 37 degC for 18 hrs by spectrophotometry based checkerboard microdilution assay
[32] = target: Beta-lactamase NDM-1 (Escherichia coli) (UniProt E5KIY2); assay: Inhibition of NDM1 in Escherichia coli clinical isolates assessed as potentiation of cefazolin-induced antibacterial activity by measuring fractional inhibitory concentration index at >256 ug/ml incubated at 37 degC for 18 hrs by spectrophotometry based checkerboard microdilution assay
[33] = target: Beta-lactamase NDM-1 (Escherichia coli) (UniProt E5KIY2); assay: Inhibition of NDM1 in Escherichia coli clinical isolates assessed as potentiation of cefotaxime-induced antibacterial activity by measuring fractional inhibitory concentration index at >256 ug/ml incubated at 37 degC for 18 hrs by spectrophotometry based checkerboard microdilution assay
Bacteria [34] = assay: as §2, with “ampicillin-induced” for “meropenem-induced”, “0.25” for “16”
Bacteria [35] = assay: (§5) Inhibition of bacterial NDM1 expressed in Escherichia coli BL21 (DE3) expressing pET-24a-blaNDM-1 assessed as potentiation of meropenem-induced antibacterial activity by measuring combination MIC at 64 ug/ml incubated at 37 degC for 18 hrs by spectrophotometry based checkerboard microdilution assay
Bacteria [36] = assay: (§6) Inhibition of bacterial NDM1 expressed in Escherichia coli BL21 (DE3) expressing pET-24a-blaNDM-1 assessed as potentiation of meropenem-induced antibacterial activity by measuring combination MIC at 0.5 ug/ml incubated at 37 degC for 18 hrs by spectrophotometry based checkerboard microdilution assay
Bacteria [37] = assay: as §3, with “0.25” for “256”
Bacteria [38] = assay: as §2, with “ampicillin-induced” for “meropenem-induced”, “fractional inhibitory concentration index” for “combination MIC”, “0.25” for “16”
Bacteria [39] = assay: as §5, with “fractional inhibitory concentration index” for “combination MIC”
Bacteria [40] = assay: as §6, with “fractional inhibitory concentration index” for “combination MIC”
Bacteria [41] = assay: as §3, with “fractional inhibitory concentration index” for “combination MIC”, “0.25” for “256”
[42] = target: Beta-lactamase NDM-1 (Escherichia coli) (UniProt E5KIY2); assay: Inhibition of NDM1 in Escherichia coli clinical isolates assessed as potentiation of meropenem -induced antibacterial activity by measuring combination MIC at 64 ug/ml incubated at 37 degC for 18 hrs by spectrophotometry based checkerboard microdilution assay
[43] = target: Beta-lactamase NDM-1 (Escherichia coli) (UniProt E5KIY2); assay: Inhibition of NDM1 in Escherichia coli clinical isolates assessed as potentiation of meropenem -induced antibacterial activity by measuring fractional inhibitory concentration index at 64 ug/ml incubated at 37 degC for 18 hrs by spectrophotometry based checkerboard microdilution assay

inhibition (Bacteria [2]): > 50%
Compound: Cc1ccc(-n2nnnc2CS(=O)(=O)c2ccccc2)cc1
pKi [1]: 4.15

Compound: C[C@@H](O)[C@H]1C(=O)N2C(C(=O)O)=C(S[C@@H]3CN[C@H](C(=O)N(C)C)C3)[C@H](C)[C@H]12 [MEROPENEM]
MIC (Escherichia coli [3]): 128 µg/mL (≈ 334 µM)
MIC (Escherichia coli [4]): 1 µg/mL (≈ 2.61 µM)

inhibition (Bacteria [2]): > 50%
Compound: Nc1ncnc2c1nc(S(=O)(=O)O)n2Cc1ccccc1
pKi [1]: 4.19

inhibition (Bacteria [2]): > 50%
Compound: O=C(O)CN1C(=O)S/C(=C\c2ccccc2Br)C1=O
pKi [1]: 4.12

fold change (FC) [5]: 8
inhibition (Bacteria [2]): > 50%
fold change (FC) (Bacteria [6]): 16
fold change (FC) (Bacteria [7]): 4
MIC (Bacteria [8]): 1020 µg/mL
MIC (Bacteria [9]): 0.0625 µg/mL
MIC (Bacteria [10]): 0.25 µg/mL
MIC (Bacteria [11]): 0.5 µg/mL
MIC (Bacteria [12]): 32 µg/mL
MIC (Bacteria [13]): 1 µg/mL
MIC (Bacteria [14]): 2 µg/mL
MIC (Bacteria [15]): 4 µg/mL
MIC [16]: 32 µg/mL
fractional inhibitory concentration index (FICI) (Bacteria [17]): > 1
fractional inhibitory concentration index (FICI) (Bacteria [18]): < 0.563
fractional inhibitory concentration index (FICI) (Bacteria [19]): < 0.281
fractional inhibitory concentration index (FICI) (Bacteria [20]): < 0.501
fractional inhibitory concentration index (FICI) (Bacteria [21]): > 1
fractional inhibitory concentration index (FICI) (Bacteria [22]): < 0.625
fractional inhibitory concentration index (FICI) (Bacteria [23]): < 0.258
fractional inhibitory concentration index (FICI) (Bacteria [24]): < 0.505
MIC [25]: 16 µg/mL
MIC [26]: 64 µg/mL
MIC [27]: 2050 µg/mL
MIC [28]: 1020 µg/mL
fractional inhibitory concentration index (FICI) [29]: < 0.375
fractional inhibitory concentration index (FICI) [30]: < 0.313
fractional inhibitory concentration index (FICI) [31]: < 0.504
fractional inhibitory concentration index (FICI) [32]: > 1
fractional inhibitory concentration index (FICI) [33]: > 1
Compound: C=CCn1c(S)nnc1-c1ccccc1O
pKi [1]: 6.14

MIC (Escherichia coli [4]): ≥ 32 µg/mL
Compound: Cc1nnc(SCC2=C(C(=O)O)N3C(=O)[C@@H](NC(=O)Cn4cnnn4)[C@H]3SC2)s1 [CEFAZOLIN]

inhibition (Bacteria [2]): > 50%
Compound: O=C(CS(=O)(=O)c1ccccc1)NC1CCCCC1
pKi [1]: 4.28

Compound: CO/N=C(\C(=O)N[C@@H]1C(=O)N2C(C(=O)O)=C(COC(C)=O)CS[C@H]12)c1csc(N)n1 [CEFOTAXIME]
MIC (Escherichia coli [3]): 1020 µg/mL (≈ 2250 µM)
MIC (Escherichia coli [4]): 8 µg/mL (≈ 17.6 µM)

MIC (Escherichia coli [3]): > 32800 µg/mL
MIC (Escherichia coli [4]): 1020 to 2050 µg/mL (≈ 2930 to 5860 µM)
Compound: CC1(C)S[C@@H]2[C@H](NC(=O)[C@H](N)c3ccccc3)C(=O)N2[C@H]1C(=O)O [AMPICILLIN]

fold change (FC) [5]: 4
inhibition (Bacteria [2]): > 50%
fold change (FC) (Bacteria [6]): 4
MIC (Bacteria [15]): 4 µg/mL
MIC (Bacteria [34]): 1020 µg/mL
MIC (Bacteria [35]): 0.25 µg/mL
MIC (Bacteria [36]): 0.5 µg/mL
MIC (Bacteria [37]): 32 µg/mL
MIC [16]: 32 µg/mL
fractional inhibitory concentration index (FICI) (Bacteria [24]): < 0.501
fractional inhibitory concentration index (FICI) (Bacteria [38]): < 0.501
fractional inhibitory concentration index (FICI) (Bacteria [39]): < 0.375
fractional inhibitory concentration index (FICI) (Bacteria [40]): < 0.501
fractional inhibitory concentration index (FICI) (Bacteria [41]): < 0.501
MIC [27]: 2050 µg/mL
MIC [28]: 1020 µg/mL
MIC [42]: 64 µg/mL
fractional inhibitory concentration index (FICI) [30]: < 0.313
fractional inhibitory concentration index (FICI) [32]: > 1
fractional inhibitory concentration index (FICI) [33]: > 1
fractional inhibitory concentration index (FICI) [43]: < 0.501
Compound: Sc1nncn1NCc1cccc(Br)c1
pKi [1]: 6.00

inhibition (Bacteria [2]): > 50%
Compound: Nc1nnnn1NCc1cccc(Cl)c1Cl
pKi [1]: 4.17

inhibition (Bacteria [2]): > 50%
Compound: Cn1c(SCC(=O)O)nnc1-c1ccc(N)cc1
pKi [1]: 4.07

inhibition (Bacteria [2]): > 50%
Compound: O=C(O)CC(Sc1c[nH]c2ccccc12)C(=O)O (centres undefined)
pKi [1]: 4.17
